Results reported in ChEMBL document CHEMBL3045324, “5-phenyl-1-benzofuran-2-yl derivatives: synthesis, antimicrobial, and antioxidant activity” (2013).
Values after ≈ are worked out from the molar mass of the structure shown. Active and inactive are the calls of the source. The rule behind the calls is not given here.

Experiments:
[1] = tested on: Escherichia coli; assay: Antibacterial activity against Escherichia coli NCTC 12923 assessed as growth inhibition at 50 mg/mL after 24 hr; assay type: functional; conditions: NCTC 12923, 24 h, read-out: IZ
[2] = tested on: Bacillus subtilis; assay: Antibacterial activity against Bacillus subtilis NCTC 10400 assessed as growth inhibition at 50 mg/mL after 24 hr; assay type: functional; conditions: NCTC 10400, 24 h, read-out: IZ
[3] = tested on: Candida albicans; assay: Antifungal activity against Candida albicans NCPF 3179 assessed as growth inhibition at 50 mg/mL after 3 days; assay type: functional; conditions: NCPF 3179, 72 h, read-out: IZ
[4] = tested on: Staphylococcus aureus; assay: Antibacterial activity against Staphylococcus aureus NCTC 10788 assessed as growth inhibition at 50 mg/mL after 24 hr; assay type: functional; conditions: NCTC 10788, 24 h, read-out: IZ
[5] = tested on: Radical scavenging activity; assay: Antioxidant activity assessed as DPPH radical scavenging activity at 1 mg/mL after 15 min UV-vis spectrophotometric analysis relative to control; assay type: functional
[6] = tested on: Escherichia coli; assay: Antibacterial activity against Escherichia coli NCTC 12923 assessed as growth inhibition at 1 to 50 mg/mL after 24 hr; assay type: functional, organism-based
[7] = tested on: Bacillus subtilis; assay: Antibacterial activity against Bacillus subtilis NCTC 10400 assessed as growth inhibition after 24 hr; assay type: functional; conditions: NCTC 10400, 24 h
[8] = tested on: Staphylococcus aureus; assay: Antibacterial activity against Staphylococcus aureus NCTC 10788 assessed as growth inhibition after 24 hr; assay type: functional; conditions: NCTC 10788, 24 h
[9] = tested on: Bacillus subtilis; assay: Antibacterial activity against Bacillus subtilis NCTC 10400 assessed as growth inhibition at 1 to 50 mg/mL after 24 hr; assay type: functional, organism-based
[10] = tested on: Candida albicans; assay: Antifungal activity against Candida albicans NCPF 3179 assessed as growth inhibition at 1 to 50 mg/mL after 3 days; assay type: functional, organism-based
[11] = tested on: Staphylococcus aureus; assay: Antibacterial activity against Staphylococcus aureus NCTC 10788 assessed as growth inhibition at 1 to 50 mg/mL after 24 hr; assay type: functional, organism-based
[12] = tested on: Candida albicans; assay: Antifungal activity against Candida albicans NCPF 3179 assessed as growth inhibition after 3 days; assay type: functional; conditions: NCPF 3179, 72 h

O=[N+]([O-])c1cccc(-c2ccc(C(O)c3cc4cc(-c5cccc([N+](=O)[O-])c5)ccc4o3)cc2)c1 (configuration not stated)
zone of inhibition at 50000 µg/mL [1]: 0 mm
zone of inhibition at 50000 µg/mL [2]: 6 mm
zone of inhibition at 50000 µg/mL [3]: 0 mm
zone of inhibition at 50000 µg/mL [4]: 6 mm
Activity [5]: 19.9%
growth inhibition (GI) [6]: inactive
MIC [7]: 500 µg/mL (≈ 1070 µM)
MIC [8]: 500 µg/mL (≈ 1070 µM)

OC(c1ccc(-c2ccccc2F)cc1)c1cc2cc(-c3ccccc3F)ccc2o1 (configuration not stated)
zone of inhibition at 50000 µg/mL [1]: 0 mm
zone of inhibition at 50000 µg/mL [2]: 6 mm
growth inhibition (GI) [9]: inactive
zone of inhibition at 50000 µg/mL [3]: 0 mm
growth inhibition (GI) [10]: inactive
zone of inhibition at 50000 µg/mL [4]: 0 mm
Activity [5]: 21.3%
growth inhibition (GI) [6]: inactive
MIC [7]: 50 µg/mL (≈ 121 µM)
growth inhibition (GI) [11]: inactive

CCc1ccc(-c2ccc(C(O)(Cc3ccccc3)c3cc4cc(-c5ccc(CC)cc5)ccc4o3)cc2)cc1 (configuration not stated)
growth inhibition (GI) [9]: inactive
growth inhibition (GI) [10]: inactive
Activity [5]: 60.3%
growth inhibition (GI) [6]: inactive
growth inhibition (GI) [11]: inactive

O=C(c1ccc(-c2ccccc2F)cc1)c1cc2cc(-c3ccccc3F)ccc2o1
growth inhibition (GI) [9]: inactive
growth inhibition (GI) [10]: inactive
Activity [5]: 18.7%
growth inhibition (GI) [6]: inactive
growth inhibition (GI) [11]: inactive

CCOc1ccccc1-c1ccc(C(=O)c2cc3cc(-c4ccccc4OCC)ccc3o2)cc1
growth inhibition (GI) [9]: inactive
growth inhibition (GI) [10]: inactive
Activity [5]: 16.1%
growth inhibition (GI) [6]: inactive
growth inhibition (GI) [11]: inactive

CCc1ccc(-c2ccc(C(O)(c3cc4cc(-c5ccc(CC)cc5)ccc4o3)C(C)C)cc2)cc1 (configuration not stated)
growth inhibition (GI) [9]: inactive
growth inhibition (GI) [10]: inactive
Activity [5]: 34.7%
growth inhibition (GI) [6]: inactive
growth inhibition (GI) [11]: inactive

C=Cc1ccc(-c2ccc(C(=O)c3cc4cc(-c5ccc(C=C)cc5)ccc4o3)cc2)cc1
zone of inhibition at 50000 µg/mL [1]: 0 mm
zone of inhibition at 50000 µg/mL [2]: 16 mm
zone of inhibition at 50000 µg/mL [3]: 6 mm
zone of inhibition at 50000 µg/mL [4]: 10 mm
Activity [5]: 33.7%
MIC [12]: 500 µg/mL (≈ 1170 µM)
growth inhibition (GI) [6]: inactive
MIC [7]: 50 µg/mL (≈ 117 µM)
MIC [8]: 250 µg/mL (≈ 586 µM)

CS(=O)(=O)c1cccc(-c2ccc(C(=O)c3cc4cc(-c5cccc(S(C)(=O)=O)c5)ccc4o3)cc2)c1
zone of inhibition at 50000 µg/mL [1]: 0 mm
zone of inhibition at 50000 µg/mL [2]: 16 mm
zone of inhibition at 50000 µg/mL [3]: 6 mm
zone of inhibition at 50000 µg/mL [4]: 0 mm
Activity [5]: 12.3%
MIC [12]: 500 µg/mL (≈ 942 µM)
growth inhibition (GI) [6]: inactive
MIC [7]: 500 µg/mL (≈ 942 µM)

CC(C)C(O)(c1ccc(-c2ccccc2)cc1)c1cc2cc(-c3ccccc3)ccc2o1 (configuration not stated)
growth inhibition (GI) [9]: inactive
growth inhibition (GI) [10]: inactive
Activity [5]: 52.3%
growth inhibition (GI) [6]: inactive
growth inhibition (GI) [11]: inactive

OC(Cc1ccccc1)(c1ccc(-c2ccccc2)cc1)c1cc2cc(-c3ccccc3)ccc2o1 (configuration not stated)
growth inhibition (GI) [9]: inactive
growth inhibition (GI) [10]: inactive
Activity [5]: 30.5%
growth inhibition (GI) [6]: inactive
growth inhibition (GI) [11]: inactive

CC(C)(C)C(O)(c1ccc(-c2ccccc2)cc1)c1cc2cc(-c3ccccc3)ccc2o1 (configuration not stated)
growth inhibition (GI) [9]: inactive
growth inhibition (GI) [10]: inactive
Activity [5]: 18.8%
growth inhibition (GI) [6]: inactive
growth inhibition (GI) [11]: inactive

CCc1ccc(-c2ccc(C(O)(CC)c3cc4cc(-c5ccc(CC)cc5)ccc4o3)cc2)cc1 (configuration not stated)
growth inhibition (GI) [9]: inactive
growth inhibition (GI) [10]: inactive
Activity [5]: 55.2%
growth inhibition (GI) [6]: inactive
growth inhibition (GI) [11]: inactive

CCOc1ccccc1-c1ccc(C(O)c2cc3cc(-c4ccccc4OCC)ccc3o2)cc1 (configuration not stated)
growth inhibition (GI) [9]: inactive
growth inhibition (GI) [10]: inactive
Activity [5]: 19.3%
growth inhibition (GI) [6]: inactive
growth inhibition (GI) [11]: inactive

CS(=O)(=O)c1cccc(-c2ccc(C(O)c3cc4cc(-c5cccc(S(C)(=O)=O)c5)ccc4o3)cc2)c1 (configuration not stated)
Activity [5]: 39.8%
growth inhibition (GI) [6]: inactive

CCOc1ccccc1-c1ccc(C(O)(CC)c2cc3cc(-c4ccccc4OCC)ccc3o2)cc1 (configuration not stated)
growth inhibition (GI) [9]: inactive
growth inhibition (GI) [10]: inactive
Activity [5]: 5.5%
growth inhibition (GI) [6]: inactive
growth inhibition (GI) [11]: inactive
